Reference: patent publication US12054483B2, “Small molecule inhibitors of DYRK/CLK and uses thereof” (Arizona Board of Regents on Behalf of the University of …, priority 2018, dated 2024)

Target: DYRK1A (Homo sapiens, UniProt Q13627)
Assay: Affinity testing of compounds with DYRK1A (KD)
Type: binding
Conditions: DYRK1A affinity key classes

Kd, 0.5 to 100 nM:
Cc1nc2ccc(-c3ccnc(N)c3)nc2n1-c1ccc(N2CCN(C)CC2)c(F)c1 [Compound 151, 4-(3-(3-fluoro-4-(4-methylpiperazin-1-yl)phenyl)-2-methyl-3H-imidazo[4,5-b]pyridin-5-yl)pyridin-2-amine]
Cc1nc2ccc(-c3ccnc(N)c3)nc2n1-c1cnc2[nH]ccc2c1 [Compound 152, 4-(2-methyl-3-(1H-pyrrolo[2,3-b]pyridin-5-yl)-3H-imidazo[4,5-b]pyridin-5-yl)pyridin-2-amine]
Cc1nc2ccc(-c3ccnc(N)c3)nc2n1-c1cccc(CN2CCOCC2)c1 [Compound 153, 4-(2-methyl-3-(3-(morpholinomethyl)phenyl)-3H-imidazo[4,5-b]pyridin-5-yl)pyridin-2-amine]
CC(=O)N1CCc2cc(-n3c(C)nc4ccc(-c5ccnc(N)c5)nc43)ccc21 [Compound 154, 1-(5-(5-(2-aminopyridin-4-yl)-2-methyl-3H-imidazo[4,5-b]pyridin-3-yl)indolin-1-yl)ethan-1-one]
Cc1nc2ccc(-c3ccnc(N)c3)nc2n1-c1cccc(CN2C[C@H](C)O[C@@H](C)C2)c1 [Compound 156, 4-(3-(3-(((2S,6S)-2,6-dimethylmorpholino)methyl)phenyl)-2-methyl-3H-imidazo[4,5-b]pyridin-5-yl)pyridin-2-amine]
Cc1nc2ccc(-c3ccnc(N)c3)nc2n1-c1cccc(N2CCOCC2)c1 [Compound 157, 4-(2-methyl-3-(3-morpholinophenyl)-3H-imidazo[4,5-b]pyridin-5-yl)pyridin-2-amine]
Cc1nc2ccc(-c3ccnc(N)c3)nc2n1-c1ccc(N2CCOCC2)nc1 [Compound 158, 4-(2-methyl-3-(6-morpholinopyridin-3-yl)-3H-imidazo[4,5-b]pyridin-5-yl)pyridin-2-amine]
Cc1nc2ccc(-c3ccnc(N)c3)nc2n1-c1ccc(CN2CCCCC2)cc1 [Compound 159, 4-(2-methyl-3-(4-(piperidin-1-ylmethyl)phenyl)-3H-imidazo[4,5-b]pyridin-5-yl)pyridin-2-amine]
Cc1nc2ccc(-c3ccnc(N)c3)nc2n1-c1ccc(N2C[C@H]3C[C@H]2CO3)nc1 [Compound 160, 4-(3-(6-((1R,4S)-2-oxa-5-azabicyclo[2.2.1]heptan-5-yl)pyridin-3-yl)-2-methyl-3H-imidazo[4,5-b]pyridin-5-yl)pyridin-2-amine]
Cc1nc2ccc(-c3ccnc(N)c3)nc2n1-c1ccc(N2C[C@@H](C)O[C@@H](C)C2)nc1 [Compound 161, 4-(3-(6-((2S,6R)-2,6-dimethylmorpholino)pyridin-3-yl)-2-methyl-3H-imidazo[4,5-b]pyridin-5-yl)pyridin-2-amine]
Cc1cc(-n2c(C)nc3ccc(-c4ccnc(N)c4)nc32)cnc1N1CCOCC1 [Compound 162, 4-(2-methyl-3-(5-methyl-6-morpholinopyridin-3-yl)-3H-imidazo[4,5-b]pyridin-5-yl)pyridin-2-amine]
Cc1nc2ccc(-c3ccnc(N)c3)nc2n1-c1cnc(N2CCOCC2)c(C2CC2)c1 [Compound 163, 4-(3-(5-cyclopropyl-6-morpholinopyridin-3-yl)-2-methyl-3H-imidazo[4,5-b]pyridin-5-yl)pyridin-2-amine]
Cc1nc2ccc(-c3ccnc(N)c3)nc2n1-c1ccnc(N2CCOCC2)c1 [Compound 164, 4-(2-methyl-3-(2-morpholinopyridin-4-yl)-3H-imidazo[4,5-b]pyridin-5-yl)pyridin-2-amine]
Cc1nc2ccc(-c3ccnc(N)c3)nc2n1-c1cnc(N2CCOCC2)c(Cl)c1 [Compound 166, 4-(3-(5-chloro-6-morpholinopyridin-3-yl)-2-methyl-3H-imidazo[4,5-b]pyridin-5-yl)pyridin-2-amine]
Cc1nc2ccc(-c3ccnc(N)c3)nc2n1-c1ccc(N2CC3CCC(C2)O3)c(F)c1 [Compound 167, 4-(3-(4-(8-oxa-3-azabicyclo[3.2.1]octan-3-yl)-3-fluorophenyl)-2-methyl-3H-imidazo[4,5-b]pyridin-5-yl)pyridin-2-amine]
Cc1nc2ccc(-c3ccnc(N)c3)nc2n1-c1ccc(N2CCOCC2)c(Cl)c1 [Compound 168, 4-(3-(3-chloro-4-morpholinophenyl)-2-methyl-3H-imidazo[4,5-b]pyridin-5-yl)pyridin-2-amine]
Cc1nc2ccc(-c3ccnc(N)c3)nc2n1-c1ccc(N2CCC3(COC3)C2)c(F)c1 [Compound 169, 4-(3-(3-fluoro-4-(2-oxa-6-azaspiro[3.4]octan-6-yl)phenyl)-2-methyl-3H-imidazo[4,5-b]pyridin-5-yl)pyridin-2-amine]
Cc1nc2ccc(-c3ccnc(N)c3)nc2n1-c1ccc(N2CCOC[C@H]2C)c(F)c1 [Compound 170, (R)-4-(3-(3-fluoro-4-(3-methylmorpholino)phenyl)-2-methyl-3H-imidazo[4,5-b]pyridin-5-yl)pyridin-2-amine]
Cc1nc2ccc(-c3ccnc(N)c3)nc2n1-c1ccc(N2CCOC[C@@H]2C)c(F)c1 [Compound 171, (S)-4-(3-(3-fluoro-4-(3-methylmorpholino)phenyl)-2-methyl-3H-imidazo[4,5-b]pyridin-5-yl)pyridin-2-amine]
Cc1nc2ccc(-c3ccnc(N)c3)nc2n1-c1cc(F)c(N2CCOCC2)c(F)c1 [Compound 172, 4-(3-(3,5-difluoro-4-morpholinophenyl)-2-methyl-3H-imidazo[4,5-b]pyridin-5-yl)pyridin-2-amine]
Cc1nc2ccc(-c3ccnc(N)c3)nc2n1-c1ccc(F)c(N2CCOCC2)c1 [Compound 173, 4-(3-(4-fluoro-3-morpholinophenyl)-2-methyl-3H-imidazo[4,5-b]pyridin-5-yl)pyridin-2-amine]
Cc1nc2ccc(-c3ccnc(N)c3)nc2n1-c1ccc2c(c1)CCN2C1CCOCC1 [Compound 174, 4-(2-methyl-3-(1-(tetrahydro-2H-pyran-4-yl)indolin-5-yl)-3H-imidazo[4,5-b]pyridin-5-yl)pyridin-2-amine]
Cc1nc2ccc(-c3ccnc(Cl)c3)nc2n1-c1ccc(CN2CCOCC2)cc1 [Compound 176, 4-(4-(5-(2-chloropyridin-4-yl)-2-methyl-3H-imidazo[4,5-b]pyridin-3-yl)benzyl)morpholine]
Cc1nc2ccc(-c3ccnc4[nH]ccc34)nc2n1-c1cccc(CN2CCOCC2)c1 [Compound 178, 4-(3-(2-methyl-5-(1H-pyrrolo[2,3-b]pyridin-4-yl)-3H-imidazo[4,5-b]pyridin-3-yl)benzyl)morpholine]
Cc1nc2ccc(-c3ccnc4[nH]ccc34)nc2n1-c1ccc(CN2CCOCC2)cc1 [Compound 179, 4-(4-(2-methyl-5-(1H-pyrrolo[2,3-b]pyridin-4-yl)-3H-imidazo[4,5-b]pyridin-3-yl)benzyl)morpholine]
Cc1nc2ccc(-c3ccnc(N)c3)nc2n1-c1ccc(N2C[C@@H](C)O[C@@H](C)C2)c(F)c1 [Compound 181, 4-(3-(4-((2S,6R)-2,6-dimethylmorpholino)-3-fluorophenyl)-2-methyl-3H-imidazo[4,5-b]pyridin-5-yl)pyridin-2-amine]
Cc1nc2ccc(-c3ccnc(N)c3)nc2n1-c1ccc(N2CCS(=O)(=O)CC2)c(F)c1 [Compound 182, 4-(4-(5-(2-aminopyridin-4-yl)-2-methyl-3H-imidazo[4,5-b]pyridin-3-yl)-2-fluorophenyl)thiomorpholine 1,1-dioxide]
Cc1nc2ccc(-c3ccnc(N)c3)nc2n1-c1ccc(N2C[C@H](C)O[C@@H](C)C2)c(F)c1 [Compound 183, 4-(3-(4-((2S,6S)-2,6-dimethylmorpholino)-3-fluorophenyl)-2-methyl-3H-imidazo[4,5-b]pyridin-5-yl)pyridin-2-amine]
CC(=O)N1CCN(c2ccc(-n3c(C)nc4ccc(-c5ccnc(N)c5)nc43)cc2F)CC1 [Compound 184]

Kd, 501 to 10000 nM:
Cc1nc2cccnc2n1-c1ccc(CN2CCOCC2)cc1 [Compound 177, 4-(4-(2-methyl-3H-imidazo[4,5-b]pyridin-3-yl)benzyl)morpholine]

Kd, 101 to 500 nM:
Cc1nc2cnc(-c3ccnc(N)c3)cc2n1-c1cccc(CN2CCOCC2)c1 [Compound 180, 4-(2-methyl-1-(3-(morpholinomethyl)phenyl)-1H-imidazo[4,5-c]pyridin-6-yl)pyridin-2-amine]
